The subject of experiment [1] is MDA MB231 breast cancer cell suspension. In words: Ultrasound-induced DOX transfer from bubble walls into cells (fluorescence). The format is cell-based. Conditions: 0.75 mg/ml Dox/0.5% PEG-PLLA/2% PFP formulation; 3-MHz ultrasound, 2 W/cm^2, 20% duty cycle, 30-s exposure. From the text: (B) Fluorescence image of the MDA MB231 cell (thick arrow) and bubble (thin arrow) aggregates formed in the capillary during a 150-s sonication (corresponding to a 30-s ultrasound exposure time) by 3-MHz ultrasound at a 2 W/cm^2 nominal power density with a 20% duty cycle, with the focus on the bubbles. Ultrasound was applied directly to the slide through the Aquasonic coupling gel. (C) Fluorescence image of another cell aggregate of the same sample, with focus on the cells.
The elucidation of this problem would allow designing optimal ultrasound protocols. Previous data was re-evaluated. These experiments were performed by sonicating a nanodroplet/cell mixture placed in a plastic capillary (internal diameter 340 μm) of a snake mixer slide.

Experiment [2] has as its system red fluorescent protein labeled MiaPaCa-2 cells. In words: Orthotopic pancreatic cancer model, chemotherapy with or without ultrasound. The format is in vivo, Mice. To be noted: no ultrasound treatment. As for the experimental part:
Orthotopic pancreatic cancer was inoculated surgically in the pancreatic tail. Mice received a single sub-capsular injection of 1×10^6 red fluorescent protein labeled MiaPaCa-2 cells suspended in 0.125 mL serum free media (DMEM). All procedures were done utilizing a 12× Universal S3B microscope.
Following the primary surgery, high resolution (3456 pixels×2304 pixels) whole body digital images (EOS Digital Rebel, Canon USA, Lake Success, N.Y.) of each mouse were obtained once a week to monitor primary tumor growth and presence of metastases. The red fluorescent protein was visualized with an Illumatool Bright Light System that consisted of a 563 nm excitation filter and a 587 nm emission filter (Model LT-9900, LightTools Research, Encinitas, Calif.). Animals were imaged under nose-cone induced isoflurane general anesthesia. Primary tumor area was quantified using public domain software ImageJ (National Institutes of Health http://rsb.info.nih.gov/ij/).
Animals were randomly assigned to six groups, six animals each: (1) negative control (injection of PBS); (2) GEM at 140 mg/kg (positive control 1); (3) GEN at 20 mg/kg as PTX (positive control 2); (4) GEM+GEN combination treatment; (5) GEN+ultrasound; (6) GEM+nbGEN+ultrasound. […] Nominal ultrasound intensity was 3.4 W/cm^2, which corresponded to a measured MI=0.59. […]

Data on 2 molecules can be found in US20100178305A1, “ULTRASONIC NANOTHERAPY OF SOLID TUMORS WITH BLOCK COPOLYMERS STABILIZED PERFLUOROCARBON NANODROPLETS” (UNIVERSITY OF UTAH RESEARCH FOUNDATION, priority 2008, published 2010).

Consider `COc1cccc2c1C(=O)c1c(O)c3c(c(O)c1C2=O)C[C@@](O)(C(=O)CO)C[C@@H]3O[C@H]1C[C@H](N)[C@H](O)[C@H](C)O1` [DOX, doxorubicin], for which the “Cell fluorescence after sonication (DOX transfer into cells)” value in experiment [1] is given as “acquired strong fluorescence”.

In the case of `Nc1ccn([C@@H]2O[C@H](CO)[C@@H](O)C2(F)F)c(=O)n1` [GEM, gemcitabine], the “Ascitis in ultrasound images” value in experiment [2] is “clearly visible”.
